From patent US8003660B2, “Modulators of muscarinic receptors” (Vertex Pharmaceuticals Incorporated, priority 2006, dated 2011)

Legend:
Format in all cases: cell-based
M1 muscarinic receptor = target: T1, M1 muscarinic receptor (Homo sapiens, UniProt P11229); experiment: Functional mobilization of intracellular calcium (FLIPR) in CHO cells expressing M1; details: for EC50: CHO cells expressing M1, FLIPR calcium; for Emax: CHO, read-out: M1 Efficacy; for Emax / M1 Efficacy: 100% = maximum response obtained with the Carbachol control
T1 construct: expressed in transfected cells; host or cells: CHO (M1-CHO)
T1 sequence (P11229 1-460): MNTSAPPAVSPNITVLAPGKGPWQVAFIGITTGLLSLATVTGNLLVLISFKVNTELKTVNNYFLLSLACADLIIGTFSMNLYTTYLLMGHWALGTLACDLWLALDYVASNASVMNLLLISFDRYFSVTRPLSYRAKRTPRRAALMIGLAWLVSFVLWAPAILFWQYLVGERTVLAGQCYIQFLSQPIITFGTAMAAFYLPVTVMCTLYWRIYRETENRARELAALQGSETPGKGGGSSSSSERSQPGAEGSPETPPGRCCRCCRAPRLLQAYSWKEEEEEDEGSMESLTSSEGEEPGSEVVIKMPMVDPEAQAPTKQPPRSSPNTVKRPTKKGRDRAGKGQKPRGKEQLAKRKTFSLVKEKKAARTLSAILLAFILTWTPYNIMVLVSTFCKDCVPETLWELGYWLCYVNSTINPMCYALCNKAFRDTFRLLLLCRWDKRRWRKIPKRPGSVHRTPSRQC
In short: (§1)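 Recombinant CHO cells loaded with Fluo-3 AM or Calcium 3 dye in pH 7.4 buffer containing 1 mM probenecid, with 0.5% final DMSO. For agonism, compound is added directly. For inhibition, it is preincubated 15 min, or co-applied, before carbachol at EC80. FLIPR fluorescence (ex 488, em 540 nm) is recorded for 60 s.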

M2 muscarinic receptor = target: T2, M2 muscarinic receptor (Homo sapiens, UniProt P08172); experiment: Functional mobilization of intracellular calcium (FLIPR) in CHO cells expressing M2; details: for EC50: CHO cells expressing M2, FLIPR calcium; for Emax: CHO, read-out: M2 Efficacy; for Emax / M2 Efficacy: 100% = maximum response obtained with the Carbachol control
T2 construct: expressed in transfected cells; host or cells: CHO (M2-CHO)
T2 sequence (P08172 1-466): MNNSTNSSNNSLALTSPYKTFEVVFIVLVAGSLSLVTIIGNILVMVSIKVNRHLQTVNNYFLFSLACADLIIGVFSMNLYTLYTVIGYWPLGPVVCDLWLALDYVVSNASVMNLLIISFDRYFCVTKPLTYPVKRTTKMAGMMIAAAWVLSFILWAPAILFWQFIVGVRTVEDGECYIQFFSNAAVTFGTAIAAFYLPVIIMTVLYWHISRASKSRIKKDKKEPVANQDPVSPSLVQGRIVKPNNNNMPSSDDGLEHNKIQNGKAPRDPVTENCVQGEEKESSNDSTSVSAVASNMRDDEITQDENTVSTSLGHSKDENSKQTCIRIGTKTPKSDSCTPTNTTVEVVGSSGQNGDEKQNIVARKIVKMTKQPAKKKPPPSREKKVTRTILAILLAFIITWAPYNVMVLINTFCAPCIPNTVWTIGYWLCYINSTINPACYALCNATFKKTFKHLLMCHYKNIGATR
In short: as §1

M3 muscarinic receptor = target: T3, M3 muscarinic receptor (Homo sapiens, UniProt P20309); experiment: Functional mobilization of intracellular calcium (FLIPR) in CHO cells expressing M3; details: for EC50: CHO cells expressing M3, FLIPR calcium; for Emax: CHO, read-out: M3 Efficacy; for Emax / M3 Efficacy: 100% = maximum response obtained with the Carbachol control
T3 construct: expressed in transfected cells; host or cells: CHO (M3-CHO)
In short: as §1

M4 muscarinic receptor = target: T4, M4 muscarinic receptor (Homo sapiens, UniProt P08173); experiment: Functional mobilization of intracellular calcium (FLIPR) in CHO cells expressing M4; details: for EC50: CHO cells expressing M4, FLIPR calcium; for Emax: CHO, read-out: M4 Efficacy; for Emax / M4 Efficacy: 100% = maximum response obtained with the Carbachol control
T4 construct: expressed in transfected cells; host or cells: CHO (M4-CHO)
T4 sequence (P08173 1-479): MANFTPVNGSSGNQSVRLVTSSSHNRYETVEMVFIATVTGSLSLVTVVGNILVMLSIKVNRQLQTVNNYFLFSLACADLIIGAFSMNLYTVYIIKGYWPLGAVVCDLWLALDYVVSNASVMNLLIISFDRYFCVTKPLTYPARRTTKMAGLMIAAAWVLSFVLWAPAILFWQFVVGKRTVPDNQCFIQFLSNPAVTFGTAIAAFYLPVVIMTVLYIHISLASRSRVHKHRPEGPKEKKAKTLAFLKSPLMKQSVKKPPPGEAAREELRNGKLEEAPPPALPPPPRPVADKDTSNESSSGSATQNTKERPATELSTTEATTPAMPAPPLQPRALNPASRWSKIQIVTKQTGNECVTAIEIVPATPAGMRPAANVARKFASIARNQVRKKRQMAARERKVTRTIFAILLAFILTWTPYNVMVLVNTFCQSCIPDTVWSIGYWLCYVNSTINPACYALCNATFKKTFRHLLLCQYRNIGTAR
In short: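 Read-out: FLIPR fluorescence (ex 488, em 540 nm) over 60 s. Recombinant CHO lines are dye-loaded (Fluo-3 AM or Calcium 3) with 1 mM probenecid. For antagonist mode, compound is pre-incubated 15 min, or co-applied, then carbachol is added at 3× EC80 per subtype.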

T3 sequence (P20309 whole entry): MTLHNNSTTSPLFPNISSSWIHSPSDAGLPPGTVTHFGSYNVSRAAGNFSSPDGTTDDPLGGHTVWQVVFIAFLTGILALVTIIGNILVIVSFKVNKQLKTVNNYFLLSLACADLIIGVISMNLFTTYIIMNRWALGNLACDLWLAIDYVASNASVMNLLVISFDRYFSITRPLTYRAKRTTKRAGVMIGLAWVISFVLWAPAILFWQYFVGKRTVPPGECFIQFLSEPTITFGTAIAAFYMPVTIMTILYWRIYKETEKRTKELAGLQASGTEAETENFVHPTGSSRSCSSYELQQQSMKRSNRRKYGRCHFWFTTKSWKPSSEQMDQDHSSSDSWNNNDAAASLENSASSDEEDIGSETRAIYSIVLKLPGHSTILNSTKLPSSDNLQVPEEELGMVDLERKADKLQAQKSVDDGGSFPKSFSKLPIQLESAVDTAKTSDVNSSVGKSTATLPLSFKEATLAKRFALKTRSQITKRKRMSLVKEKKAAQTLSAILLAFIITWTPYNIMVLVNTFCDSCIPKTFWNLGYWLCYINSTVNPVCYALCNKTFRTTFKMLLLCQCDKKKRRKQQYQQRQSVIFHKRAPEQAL

Structure (SMILES)	EC50 (M1 muscarinic receptor)	Emax (M1 muscarinic receptor)	EC50 (M2 muscarinic receptor)	Emax (M2 muscarinic receptor)	EC50 (M3 muscarinic receptor)	Emax (M3 muscarinic receptor)	EC50 (M4 muscarinic receptor)	Emax (M4 muscarinic receptor)	M1 Efficacy (M1 muscarinic receptor)	M2 Efficacy (M2 muscarinic receptor)	M3 Efficacy (M3 muscarinic receptor)	M4 Efficacy (M4 muscarinic receptor)
CCC(=O)N[C@@H]1CCC2(CCN(CCC(C)(C)C)CC2)c2ccccc21 [compound 62]	> 5000 nM	< 25%	> 5000 nM	< 25%	> 5000 nM	< 25%	< 2000 nM	25 to 100%	–	–	–	–
CCOCC(=O)N[C@@H]1CCC2(CCN(CCC(C)(C)C)CC2)c2cc(F)ccc21 [compound 63]	< 2000 nM	25 to 100%	< 2000 nM	< 25%	> 5000 nM	< 25%	< 2000 nM	25 to 100%	–	–	–	–
CC(=O)N[C@@H]1CCC2(CCN(CCC(C)(C)C)CC2)c2ccccc21 [compound 64]	2000 to 5000 nM	< 25%	> 5000 nM	< 25%	> 5000 nM	< 25%	< 2000 nM	25 to 100%	–	–	–	–
CC(C)(C)CCN1CCC2(CC[C@@H](NC(=O)Cc3cccnc3)c3ccc(F)cc32)CC1 [compound 65]	< 2000 nM	25 to 100%	2000 to 5000 nM	< 25%	> 5000 nM	< 25%	< 2000 nM	25 to 100%	–	–	–	–
CC(=O)N[C@H]1CCC2(CCN(CC(C)(C)C)CC2)c2ccccc21 [compound 66]	< 2000 nM	25 to 100%	> 5000 nM	25 to 100%	> 5000 nM	< 25%	< 2000 nM	25 to 100%	–	–	–	–
CC(C)(C)CCN1CCC2(CC[C@H](NC(=O)C3CC(=O)N3)c3ccc(F)cc32)CC1 (stereo partly drawn) [compound 67]	< 2000 nM	25 to 100%	< 2000 nM	25 to 100%	> 5000 nM	< 25%	< 2000 nM	25 to 100%	–	–	–	–
CC(=O)N[C@H]1CCC2(CCN(CCC(C)CCC=C(C)C)CC2)c2ccccc21 (stereo partly drawn) [compound 68]	< 2000 nM	> 100%	< 2000 nM	25 to 100%	> 5000 nM	< 25%	< 2000 nM	25 to 100%	–	–	–	–
CCn1cc(C(=O)N[C@H]2CCC3(CCN(CCC(C)(C)C)CC3)c3ccccc32)cn1 [compound 69]	> 5000 nM	–	> 5000 nM	–	> 5000 nM	–	< 2000 nM	–	+ (efficacy was calculated to be less than 25%)	+ (efficacy was calculated to be less than 25%)	+ (efficacy was calculated to be less than 25%)	++ (efficacy was calculated to be from 100% to 25%)
CCOCC(=O)N[C@H]1CCC2(CCN(CCC(C)(C)C)CC2)c2ccccc21 [compound 70]	< 2000 nM	25 to 100%	< 2000 nM	< 25%	> 5000 nM	< 25%	< 2000 nM	25 to 100%	–	–	–	–
CC(C)(C)CCN1CCC2(CC[C@H](NC(=O)CN3CCCCCC3=O)c3ccccc32)CC1 [compound 71]	< 2000 nM	25 to 100%	< 2000 nM	25 to 100%	> 5000 nM	< 25%	< 2000 nM	25 to 100%	–	–	–	–
CC(=O)N1CCCC[C@H]1C(=O)N[C@@H]1CCC2(CCN(CCC(C)(C)C)CC2)c2cc(F)ccc21 [compound 72]	2000 to 5000 nM	25 to 100%	2000 to 5000 nM	< 25%	> 5000 nM	< 25%	< 2000 nM	25 to 100%	–	–	–	–
CCC(CC)CN1CCC2(CC[C@H](NC(C)=O)c3ccccc32)CC1 [compound 73]	< 2000 nM	25 to 100%	> 5000 nM	< 25%	> 5000 nM	< 25%	< 2000 nM	25 to 100%	–	–	–	–
CC(C)(C)CCN1CCC2(CC[C@H](NC(=O)c3cccnc3)c3ccccc32)CC1 [compound 74]	< 2000 nM	–	< 2000 nM	–	> 5000 nM	–	< 2000 nM	–	++ (efficacy was calculated to be from 100% to 25%)	++ (efficacy was calculated to be from 100% to 25%)	+ (efficacy was calculated to be less than 25%)	++ (efficacy was calculated to be from 100% to 25%)
CC(C)(C)CCN1CCC2(CC[C@@H](NC(=O)[C@@H]3CCC(=O)N3)c3ccc(F)cc32)CC1 [compound 75]	2000 to 5000 nM	25 to 100%	2000 to 5000 nM	< 25%	> 5000 nM	< 25%	< 2000 nM	25 to 100%	–	–	–	–
CC(C)(C)CCN1CCC2(CC[C@@H](NC(=O)CN3CCCC3=O)c3ccc(F)cc32)CC1 [compound 76]	< 2000 nM	25 to 100%	< 2000 nM	25 to 100%	> 5000 nM	< 25%	< 2000 nM	25 to 100%	–	–	–	–
CCN(C(C)=O)[C@H]1CCC2(CCN(CCC(C)(C)C)CC2)c2cc(F)ccc21 [compound 77]	< 2000 nM	25 to 100%	2000 to 5000 nM	< 25%	> 5000 nM	< 25%	< 2000 nM	25 to 100%	–	–	–	–
C[C@H](C(=O)N[C@@H]1CCC2(CCN(CCC(C)(C)C)CC2)c2cc(F)ccc21)N1CCCC1=O [compound 78]	< 2000 nM	25 to 100%	< 2000 nM	25 to 100%	> 5000 nM	< 25%	< 2000 nM	25 to 100%	–	–	–	–
CC(C)(C)CCN1CCC2(CC[C@H](NC(=O)Cc3cccnc3)c3ccc(F)cc32)CC1 [compound 79]	< 2000 nM	25 to 100%	< 2000 nM	25 to 100%	> 5000 nM	< 25%	< 2000 nM	25 to 100%	–	–	–	–
CC(C)CCN1CCC2(CC[C@H](NS(C)(=O)=O)c3ccccc32)CC1 [compound 80]	< 2000 nM	25 to 100%	> 5000 nM	< 25%	> 5000 nM	< 25%	< 2000 nM	25 to 100%	–	–	–	–
CC(=O)N1CCC(C(=O)N[C@H]2CCC3(CCN(CCC(C)(C)C)CC3)c3cc(F)ccc32)CC1 [compound 81]	2000 to 5000 nM	25 to 100%	> 5000 nM	< 25%	> 5000 nM	< 25%	< 2000 nM	25 to 100%	–	–	–	–
CC(=O)N1CCCC[C@@H]1C(=O)N[C@H]1CCC2(CCN(CCC(C)(C)C)CC2)c2cc(F)ccc21 [compound 82]	< 2000 nM	25 to 100%	2000 to 5000 nM	< 25%	> 5000 nM	< 25%	< 2000 nM	25 to 100%	–	–	–	–
